compound: CC1=C(C(=NN1)C)CC2=C(C3=C(S2)N(C(=O)N(C3=O)C)CC(C)C)C(=O)N4C[C@@H](CO4)O + Cc1nc(NC(=O)N2CCC[C@H]2C(N)=O)sc1-c1ccnc(C(C)(C)C(F)(F)F)c1 [Alpelisib] (partner 2 µM); experiment: relative viability (nuclei count vs DMSO), 5 days (fraction); higher = more cells survive; conditions: first compound 0.25 µM
In short: (§1)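 Medians of duplicate plates are given as relative viability. That measure is the nuclei count in treated wells divided by the count in vehicle wells. Counts were taken on 4× images of lung cancer cell lines in 1536-well plates, 5 days after pin-tool dosing the day after seeding with one drug alone or a fixed anchor-drug dose plus five library-drug doses (not always all listed) in √10 steps.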

Question: With COR-L 105 as the cell line, how does the relative viability read?
Answer: 0.999

Question: With IA-LM as the cell line, how does the relative viability read?
Answer: 0.991

Question: With NCI-H2170 as the cell line, how does the relative viability read?
Answer: 0.786

Question: A549 was tested. Which relative viability did it give?
Answer: 0.961

Question: HCC-78 was tested. Which relative viability did it give?
Answer: 0.299

Question: How did the relative viability turn out when NCI-H1299 was run?
Answer: 1.11

Question: Which relative viability does the source give for NCI-H1563 here?
Answer: 0.893

Question: With ABC-1 as the cell line, how does the relative viability read?
Answer: 0.944

compound: Cc1ccccc1C(C(=O)NC1CCCCC1)N(C(=O)Cn1ccnc1C)c1cccc(F)c1 [IDH-C35] + CC(=O)Nc1cccc(-n2c(=O)n(C3CC3)c(=O)c3c(Nc4ccc(I)cc4F)n(C)c(=O)c(C)c32)c1 [Trametinib] (partner 0.02 µM); experiment: as above; conditions: first compound 0.08 µM
In short: as §1

Question: NCI-H522 was tested. Which relative viability did it give?
Answer: 0.767

Question: Which relative viability does the source give for NCI-H727 here?
Answer: 0.376

Question: With NCI-H1650 as the cell line, how does the relative viability read?
Answer: 0.548

Question: Which relative viability does the source give for NCI-H1993 here?
Answer: 0.479

Question: How did the relative viability turn out when SW 1573 was run?
Answer: 0.491

Question: For NCI-H838, which relative viability is on record?
Answer: 0.579

Question: With LCLC-103H as the cell line, how does the relative viability read?
Answer: 0.704

Question: How did the relative viability turn out when NCI-H520 was run?
Answer: 0.645

Question: With NCI-H2126 as the cell line, how does the relative viability read?
Answer: 0.568

Question: For EMC-BAC-2, which relative viability is on record?
Answer: 0.888

Question: With NCI-H2085 as the cell line, how does the relative viability read?
Answer: 0.634

Question: Which relative viability does the source give for HCC-366 here?
Answer: 0.293

Question: NCI-H1666 was tested. Which relative viability did it give?
Answer: 0.813

Question: NCI-H596 was tested. Which relative viability did it give?
Answer: 0.892

Question: Which relative viability does the source give for LK-2 here?
Answer: 0.719

Question: Which relative viability does the source give for NCI-H2087 here?
Answer: 0.211

Question: With NCI-H2342 as the cell line, how does the relative viability read?
Answer: 0.771

Question: Which relative viability does the source give for SK-MES-1 here?
Answer: 0.513

Question: H3255 was tested. Which relative viability did it give?
Answer: 0.699

Question: Which relative viability does the source give for COR-L23 here?
Answer: 0.599

Question: With COR-L 105 as the cell line, how does the relative viability read?
Answer: 0.444

Question: ChaGo-K-1 was tested. Which relative viability did it give?
Answer: 0.897

Question: How did the relative viability turn out when NCI-H2170 was run?
Answer: 0.855

Question: With SW 900 as the cell line, how does the relative viability read?
Answer: 0.855

Question: Which relative viability does the source give for HCC-78 here?
Answer: 0.757

same assay, conditions: first compound 0.253 µM

Question: How did the relative viability turn out when NCI-H522 was run?
Answer: 0.8

Question: How did the relative viability turn out when NCI-H727 was run?
Answer: 0.357

Question: Which relative viability does the source give for NCI-H1650 here?
Answer: 0.599

Question: Which relative viability does the source give for NCI-H1993 here?
Answer: 0.586

Question: SW 1573 was tested. Which relative viability did it give?
Answer: 0.793

Question: How did the relative viability turn out when NCI-H838 was run?
Answer: 0.505

Question: With LCLC-103H as the cell line, how does the relative viability read?
Answer: 0.672

Question: How did the relative viability turn out when NCI-H520 was run?
Answer: 0.669

Question: Which relative viability does the source give for NCI-H2126 here?
Answer: 0.563

Question: EMC-BAC-2 was tested. Which relative viability did it give?
Answer: 0.816

Question: NCI-H2085 was tested. Which relative viability did it give?
Answer: 0.493

Question: Which relative viability does the source give for HCC-366 here?
Answer: 0.376

Question: With NCI-H1666 as the cell line, how does the relative viability read?
Answer: 0.854

Question: How did the relative viability turn out when NCI-H596 was run?
Answer: 0.722

Question: With LK-2 as the cell line, how does the relative viability read?
Answer: 0.762

Question: How did the relative viability turn out when NCI-H2087 was run?
Answer: 0.226

Question: For NCI-H2342, which relative viability is on record?
Answer: 0.762

Question: For SK-MES-1, which relative viability is on record?
Answer: 0.6

Question: With H3255 as the cell line, how does the relative viability read?
Answer: 0.692

Question: Which relative viability does the source give for COR-L23 here?
Answer: 0.639

Question: COR-L 105 was tested. Which relative viability did it give?
Answer: 0.451

Question: Which relative viability does the source give for ChaGo-K-1 here?
Answer: 0.878

Question: Which relative viability does the source give for NCI-H2170 here?
Answer: 0.864

Question: SW 900 was tested. Which relative viability did it give?
Answer: 0.773

Question: For NCI-H1648, which relative viability is on record?
Answer: 0.566

Question: With HCC-78 as the cell line, how does the relative viability read?
Answer: 0.869

same assay, conditions: first compound 0.8 µM

Question: NCI-H522 was tested. Which relative viability did it give?
Answer: 0.643

Question: For NCI-H727, which relative viability is on record?
Answer: 0.34

Question: How did the relative viability turn out when NCI-H1650 was run?
Answer: 0.614

Question: How did the relative viability turn out when NCI-H1993 was run?
Answer: 0.632

Question: With SW 1573 as the cell line, how does the relative viability read?
Answer: 0.531

Question: NCI-H838 was tested. Which relative viability did it give?
Answer: 0.508

Question: For LCLC-103H, which relative viability is on record?
Answer: 0.727

Question: For NCI-H520, which relative viability is on record?
Answer: 0.818

Question: Which relative viability does the source give for NCI-H2126 here?
Answer: 0.564

Question: With EMC-BAC-2 as the cell line, how does the relative viability read?
Answer: 0.837

Question: For NCI-H2085, which relative viability is on record?
Answer: 0.571

Question: For HCC-366, which relative viability is on record?
Answer: 0.407

Question: With NCI-H1666 as the cell line, how does the relative viability read?
Answer: 0.902

Question: NCI-H596 was tested. Which relative viability did it give?
Answer: 0.808

Question: For LK-2, which relative viability is on record?
Answer: 0.735

Question: NCI-H2087 was tested. Which relative viability did it give?
Answer: 0.264

Question: Which relative viability does the source give for NCI-H2342 here?
Answer: 0.769

Question: How did the relative viability turn out when SK-MES-1 was run?
Answer: 0.581

Question: With H3255 as the cell line, how does the relative viability read?
Answer: 0.536

Question: For COR-L23, which relative viability is on record?
Answer: 0.591

Question: How did the relative viability turn out when COR-L 105 was run?
Answer: 0.446

Question: ChaGo-K-1 was tested. Which relative viability did it give?
Answer: 0.944

Question: Which relative viability does the source give for NCI-H2170 here?
Answer: 0.882

Question: NCI-H1648 was tested. Which relative viability did it give?
Answer: 0.465

Question: HCC-78 was tested. Which relative viability did it give?
Answer: 0.777

same assay, conditions: first compound 2.53 µM

Question: How did the relative viability turn out when NCI-H522 was run?
Answer: 0.796

Question: How did the relative viability turn out when NCI-H727 was run?
Answer: 0.393

Question: NCI-H1650 was tested. Which relative viability did it give?
Answer: 0.644

Question: How did the relative viability turn out when NCI-H1993 was run?
Answer: 0.542

Question: SW 1573 was tested. Which relative viability did it give?
Answer: 0.571

Question: For NCI-H838, which relative viability is on record?
Answer: 0.507

Question: Which relative viability does the source give for LCLC-103H here?
Answer: 0.656

Question: How did the relative viability turn out when NCI-H520 was run?
Answer: 0.665

Question: With NCI-H2126 as the cell line, how does the relative viability read?
Answer: 0.519

Question: With EMC-BAC-2 as the cell line, how does the relative viability read?
Answer: 0.823

Question: Which relative viability does the source give for NCI-H2085 here?
Answer: 0.729

Question: With HCC-366 as the cell line, how does the relative viability read?
Answer: 0.303

Question: How did the relative viability turn out when NCI-H1666 was run?
Answer: 0.799

Question: How did the relative viability turn out when NCI-H596 was run?
Answer: 0.746

Question: With LK-2 as the cell line, how does the relative viability read?
Answer: 0.779

Question: For NCI-H2087, which relative viability is on record?
Answer: 0.265

Question: How did the relative viability turn out when NCI-H2342 was run?
Answer: 0.767

Question: For SK-MES-1, which relative viability is on record?
Answer: 0.567

Question: For H3255, which relative viability is on record?
Answer: 0.548

Question: For COR-L23, which relative viability is on record?
Answer: 0.565

Question: For COR-L 105, which relative viability is on record?
Answer: 0.485

Question: ChaGo-K-1 was tested. Which relative viability did it give?
Answer: 0.844

Question: How did the relative viability turn out when NCI-H2170 was run?
Answer: 0.85

Question: Which relative viability does the source give for SW 900 here?
Answer: 0.91

Question: Which relative viability does the source give for NCI-H1648 here?
Answer: 0.479

Question: How did the relative viability turn out when HCC-78 was run?
Answer: 0.713

same assay, conditions: first compound 8 µM

Question: For NCI-H522, which relative viability is on record?
Answer: 0.695

Question: NCI-H727 was tested. Which relative viability did it give?
Answer: 0.372

Question: With NCI-H1650 as the cell line, how does the relative viability read?
Answer: 0.504

Question: Which relative viability does the source give for NCI-H1993 here?
Answer: 0.645

Question: With SW 1573 as the cell line, how does the relative viability read?
Answer: 0.518

Question: For NCI-H838, which relative viability is on record?
Answer: 0.503

Question: With LCLC-103H as the cell line, how does the relative viability read?
Answer: 0.7

Question: Which relative viability does the source give for NCI-H520 here?
Answer: 0.721

Question: How did the relative viability turn out when NCI-H2126 was run?
Answer: 0.537

Question: How did the relative viability turn out when EMC-BAC-2 was run?
Answer: 0.833

Question: With NCI-H2085 as the cell line, how does the relative viability read?
Answer: 0.457

Question: For HCC-366, which relative viability is on record?
Answer: 0.31

Question: Which relative viability does the source give for NCI-H1666 here?
Answer: 0.876

Question: Which relative viability does the source give for NCI-H596 here?
Answer: 0.737

Question: With LK-2 as the cell line, how does the relative viability read?
Answer: 0.745

Question: For NCI-H2087, which relative viability is on record?
Answer: 0.197

Question: NCI-H2342 was tested. Which relative viability did it give?
Answer: 0.736

Question: Which relative viability does the source give for SK-MES-1 here?
Answer: 0.45

Question: Which relative viability does the source give for H3255 here?
Answer: 0.59

Question: For COR-L23, which relative viability is on record?
Answer: 0.54

Question: For COR-L 105, which relative viability is on record?
Answer: 0.39

Question: How did the relative viability turn out when ChaGo-K-1 was run?
Answer: 0.899

Question: NCI-H2170 was tested. Which relative viability did it give?
Answer: 0.93

From the supplement of paper PMC10307832
